In patent publication US11691960B2, “2-[thiophen-2-yl)formamido]-N-(phenyl)-2-methylpropanamide derivatives and the use thereof as medicament” (Boehringer Ingelheim International GmbH, priority 2020, dated 2023):
pIC50: −log10 of the molar value.

Legend:
[1] = Assay F: tissue distribution in mouse after oral application; assay type: in vivo
Text: (§1) In order to estimate the amount of administered drug to enter the brain, the brain to plasma ratio is used as surrogate parameter. As efflux transporters (e.g. P-gp) are located at the blood-brain barrier, compounds acting as substrates will be actively transported out of the brain. As these efflux transporters are not expressed in muscle tissue, the relative distribution ratio of compound between muscle and brain tissue can be used as indication for an efflux in vivo in rats or mice. In case there is no in vivo efflux detectable (in rats/mice) and in case there is no efflux in vitro (MDCK-MDR1 (P-gp)), a brain exposure in patients can be expected [see Table 7 for comparison of in vitro efflux data (MDCK-MDR1 assay) and in vivo efflux data (tissue distribution in rat/mouse after oral application)].
(§2) Assay F. Determination of Tissue Distribution in Rat/Mouse After Oral Application of Compounds
Male Han Wistar rats or C57BL/6NRj mice were orally dosed with 10 μmol/kg of compound to be investigated, suspended in 0.5% Natrosol/0.015% Tween80. Blood was collected in K3EDTA containing vials from the sublingual vein in short time Isoflurane anesthesia in rat or from the saphenous vein in conscious mice at […], 0.25, 0.5, 1, 2, 3, 4, 8 and 24 hours post administration. Subsequently, plasma was prepared by centrifugation for 5 min at 5000 rpm and stored at −20° C. […]

[2] = target: human Factor Xa (Homo sapiens (Human), UniProt P00742); assay: Assay C: human Factor Xa chromogenic substrate assay; assay type: biochemical; settings: for pIC50: human Factor Xa 0.86 nM, chromogenic substrate S2765; for Selectivity Assay C/Assay A: ratio IC50 Factor Xa / IC50 IDO1
Description: Assay C. In Vitro Testing of Human Factor Xa Potency:
Measurement of active human Factor Xa using a specific chromogenic substrate which is labeled with a p-nitro-anilino group (pNA). The cleavage in between the binding of the peptide substrate and the pNA-group is followed by a color change, which can be detected at 405 nm. The amount of cleaved substrate is directly proportional to the amount of active Xa.
[…] (100 U) human Factor Xa (Enzyme Research Laboratories; HFXa1011) were solved in 0.444 ml H2O (Millipore), which accords to a stock solution of 19.28 μM or 225 U/ml. Further dilutions were made in the assay buffer (Tris 100 mM, NaCL 150 mM, adjusted to a pH of 7.8 with HCL, containing 0.1% BSA and 0.05% Tween20). 25 mg (1 vial) of the chromogenic substrate S2765 (Chromogenix; S2765) was solved in 3.5 ml H2O (Millipore) to achieve a stock solution of 10 mM.
Compounds were solved and diluted in DMSO where the final dilution in the assay is 1:10 resulting in a final concentration of 1% DMSO.
• the prefinal dilution step was 1:10 in the assay buffer containing 11% DMSO resulting in 10% DMSO • final dilution in the assay is 1:10 resulting in a final concentration of 1% DMSO
Compounds were tested at final concentrations of 10 μM to 0.003 nM or lower. 5 μl human factor Xa (final concentration 0.86 nM), 2 μl compound dilution or assay buffer (containing 10% DMSO) and 8 μl assay buffer were pipetted in triplicates into a 384-well plate and incubated in the Thermomix at 24° C. for 10 minutes.
After addition of 5 μl chromogenic substrate (final concentration 0.5 mM) the enzyme-substrate reaction started and the kinetic measurement with the SpectraMax Monochromator was started within 1-2 minutes. • Parameter of measurement: (Spectra ax, Monochromator) • Absorbance; 1.LM 405 nM • Kinetic: 16 min each 2nd minute (9 times) • Negative Control (NC) 5 μl human factor Xa+10 μl assay buffer+5 μl Substrate • Positive Control (PC): 5 μl human factor Xa+2 μl Nafamostat (commercially available, final concentration: 1 μM)+8 μl assay buffer+5 μl Substrate • Blank (optional): 15 μl assay buffer+5 μl Substrate
Calculation of IC50, KI and the % effect at the highest concentration (Ratio)
For the calculation the average of the Vmax-values in between 120 sec to 720 sec were taken.
A x/y-Plot was created: x=log (M, Compound); y=vmax (drfu/min)
The data were analyzed with the curve fitting model: log (inhibitor) vs. response—Variable slope (four parameters)
The results of this fit were Top, Bottom, Log (IC50, M), Hillslope and IC50 (M)

[3] = Assay F: tissue distribution in rat after oral application; assay type: in vivo
Text: as §1, §2
Male Han Wistar rats or C57BL/6NRj mice were orally dosed with 10 μmol/kg of compound to be investigated, suspended in 0.5% Natrosol/0.015% Tween80. Blood was collected in K3EDTA containing vials from the sublingual vein in short time Isoflurane anesthesia in rat or from the saphenous vein in conscious mice at […], 0.25, 0.5, 1, 2, 3, 4, 8 and 24 hours post administration. Subsequently, plasma was prepared by centrifugation for 5 min at 5000 rpm and stored at −20° C.
Tissues and CSF were sampled in anaesthetized animals. CSF was collected from the cisterna magna. Following exsanguination a femoral muscle sample was collected. Cranium and the dura matter were removed and the complete brain was collected. Before transfer of the muscle and brain sample to pre-weight homogenization devices (Precellys®) the tissues were rinsed with saline and blotted dry.
For homogenization, four parts (v/w) homogenization buffer (37.5% acetonitrile, 37.5% methanol, 25% water) were added. Tissues were homogenized with a Precellys® Evolution homogenizer. Five μL of the homogenate were added to 70 μL of a 1 to 1 (v/v) mixture of acetonitrile and methanol and frozen for at least 10 min at −18° C.
For final sample preparation, the sample was centrifuged at 4000 rpm for 1 min, and an aliquot of the resulting supernatant (30 μL) was mixed with 170 μL formic acid prior to injection to LC-MS. Calibration curves were prepared accordingly in rat and mouse plasma, respectively. All animal care and experimental procedures at Boehringer Ingelheim were conducted in compliance with the German and European Animal Welfare Act (EU Directive 2010/63/EU) and were approved by the Regierungspräsidium Tübingen as the responsible local German authority (reference number 35/9185.81-8/14-009-G).

[4] = oral 10 μmol/kg, muscle/brain tissue distribution

human Factor Xa, sequence (P00742 235-488): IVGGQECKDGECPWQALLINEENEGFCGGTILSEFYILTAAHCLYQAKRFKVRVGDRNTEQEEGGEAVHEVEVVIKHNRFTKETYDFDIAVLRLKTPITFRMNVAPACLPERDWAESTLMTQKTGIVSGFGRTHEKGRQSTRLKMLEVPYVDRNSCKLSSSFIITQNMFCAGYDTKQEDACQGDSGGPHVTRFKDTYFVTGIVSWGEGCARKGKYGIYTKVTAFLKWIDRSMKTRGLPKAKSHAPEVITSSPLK
human Factor Xa, sequence (P00742 41-179 partner): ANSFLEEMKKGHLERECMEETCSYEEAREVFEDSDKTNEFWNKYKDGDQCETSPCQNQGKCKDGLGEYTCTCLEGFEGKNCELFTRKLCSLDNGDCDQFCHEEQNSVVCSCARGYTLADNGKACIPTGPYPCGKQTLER

SMILES | in vivo efflux (in words) ([1]; after oral application) | in vivo efflux (Assay F) [1, 4] | pIC50 [2] | Selectivity Assay C/Assay A [2] | in vivo efflux (in words) ([3]; after oral application) | in vivo efflux (Assay F) [3, 4]
CC(C)(NC(=O)c1ccc(Cl)s1)C(=O)Nc1ccc(Cl)c(F)c1 [Example 3, 2-[(5-chlorothiophen-2-yl)formamido]-N-(4-chloro-3-fluorophenyl)-2-methylpropanamide] | neither in vitro nor in vivo efflux | 0.60 (mouse) | < 5.00 | >55 | – | –
CC(C)(NC(=O)c1ccc(Cl)s1)C(=O)Nc1ccc(Br)cc1 [Example 4, 2-[(5-chlorothiophen-2-yl)formamido]-N-(4-bromophenyl)-2-methylpropanamide] | – | – | < 5.00 | >42 | neither in vitro nor in vivo efflux | 0.50 (rat)
